According to patent US5869460A, “Sulfated and phosphated saccharide derivatives, process for the preparation of the same and use thereof” (Sanwa Kaguku Kenkyusho Co., Ltd., priority 1995, dated 1999):

Key:
[1] = test system: L-selectin; details: in vitro, plastic plate; BIOCHEM. BIOPHY. RES. COM. 190, 426 (1993); cited from earlier work
[2] = test system: lung injury model, lgG immunocomplex; details: INT. IMMUNOL. 7, 1107 (1995); cited from earlier work
[3] = test system: lung injury model, activation of whole body complements by CVF; details: INT. IMMUNOL. 7, 1107 (1995); cited from earlier work
[4] = test system: lung damage model induced by cobra venom factor (CVF); bleeding; test: Anti-inflammatory action to lung damage model induced by CVF: index of bleeding (hemoglobin absorbance, 541 nm, in lung homogenate supernatant); assay type: in vivo, Lewis rats; details: for inhibition in vivo at 0.2 mg: Rattus norvegicus, iv, 0.5 h, read-out: Inhibition rate (%), index of bleeding
Description: (§1) Anti-inflammatory action to lung damage model induced by CVF Compounds obtained by Examples and an exemplary known compound (sulfatide) were selected as Test Compounds to check an inflammatory action thereof to a lung damage model induced by cobra venom factor (CVF), in accordance with the method described by M. S. Mulligan et al ["J. IMMUNOL.", Vol.151, page 6410 (1993); and "INT. IMMUNOL.", Vol. 7, page 1107 (1995)].
(§2) Namely, the test compound was intravenously injected by an amount of 0.2 mg/rat to test animals (Lewis rats, age of 8 weeks, 5 animals in each group). After lapsed 5 minutes from administration, CVF (20U/2 ml/kg) was administered in a tail vein, and after 30 minutes, a laparotomy was carried out under nembutal anesthesia to perfuse the lung with phosphate-buffered saline (PBS, pH7.4) by injecting the same from right ventricle and to exenterate the lung. The extracted lung was homogenized with phosphate buffer (pH 7.4), centrifuged to collect a supernatant, and determined absorbance which was admitted as index of bleeding (It measures an amount of hemoglobin and thus detection wave-length was set to 541 nm).
(§3) Each inhibition rate (%) was calculated by
(§4) 100×[1-(value of test compound-value of negative control)/(value of positive control-value of negative control)].

[5] = test system: lung damage model induced by cobra venom factor (CVF); infiltration in neutrocyte (myeloperoxidase); test: Anti-inflammatory action to lung damage model induced by CVF: myeloperoxidase activity as index of infiltration in neutrocyte; assay type: in vivo, Lewis rats; details: for inhibition in vivo at 0.2 mg: Rattus norvegicus, iv, 0.5 h, read-out: Inhibition rate (%), myeloperoxidase activity as index of infiltration in neutrocyte
Description: as §1, §2
On the other hand, the precipitation obtained by centrifugation was sonicated in the presence of cetrimide and centrifuged to obtain a supernatant, an activity myeloperoxidase therein being measured as an index of infiltration in neutrocyte.
as §3, §4

Row | Molecule | inhibition in vivo at 0.2 mg [4] | inhibition in vivo at 0.2 mg [5] | further results
1 | CCCCCCCCCCCCCCC(CCCCCCCCCCCCCC)CO[C@@H]1O[C@H](CO)[C@@H](O[C@@H]2O[C@H](CO)[C@H](O)[C@H](OS(=O)(=O)O)[C@H]2O)[C@H](O)[C@H]1O [2-tetradesyl hexadesyl O-β-D-galactopyranosyl-(1→4)-β-D-glucopyranoside 3'-sulfate] | – | – | binding specificity to L-selectin [1]: show a binding specificity to L-selectin
2 | CCCCCCCCCCCCCCC(CCCCCCCCCCCCCC)CO[C@@H]1O[C@H](CO)[C@H](O)[C@H](OS(=O)(=O)O)[C@H]1O [2-tetradesyl hexadesyl β-D-galactopyranoside 3-sulfate] | – | – | inflammation inhibition effect [2]: shows inflammation inhibition effect; inflammation inhibition effect [3]: shows inflammation inhibition effect; binding specificity to L-selectin [1]: show a binding specificity to L-selectin
3 | CCCCCCCCCCCCCCC(CCCCCCCCCCCCCC)CO[C@@H]1O[C@H](CO)[C@@H](O[C@@H]2O[C@H](CO)[C@H](OP(=O)(O)O)[C@H](OP(=O)(O)O)[C@H]2O)[C@H](O)[C@H]1O [Example 22, Tetrasodium 2-tetradecylhexadecyl O-β-D-galactopyranosyl-(1→4)-β-D-glucopyranoside 3',4'-diphosphate] | 65% | 58% | –
4 | CCCC(CCC)CO[C@@H]1O[C@H](CO)[C@H](O)[C@H](OS(=O)(=O)O)[C@H]1O[C@@H]1O[C@@H](C)[C@@H](O)[C@@H](O)[C@@H]1O [Example 23-1, Sodium 2-propylpentyl O-α-L-fucopyranosyl-(1→2)-β-D-galactopyranoside 3-sulfate] | 53% | 51% | –
5 | CCCC(CCC)CO[C@@H]1O[C@H](CO)[C@H](O)[C@H](OP(=O)(O)O)[C@H]1O[C@@H]1O[C@@H](C)[C@@H](O)[C@@H](O)[C@@H]1O [Example 23-2, disodium 2-propylpentyl O-α-L-fucopyranosyl-(1→2)-β-D-galactopyranoside 3-phosphate] | 51% | 49% | –
6 | CCCC(CCC)CO[C@@H]1O[C@H](CO)[C@H](O)[C@H](OS(=O)(=O)O)[C@H]1O[C@@H]1O[C@@H](C)[C@@H](O)[C@@H](OS(=O)(=O)O)[C@@H]1O [Example 24-1, Disodium 2-propylpentyl O-α-L-fucopyranosyl-(1→2)-β-D-galactopyranoside 3,3'-disulfate] | 54% | 47% | –
7 | CCCC(CCC)CO[C@@H]1O[C@H](CO)[C@H](O)[C@H](OP(=O)(O)O)[C@H]1O[C@@H]1O[C@@H](C)[C@@H](O)[C@@H](OP(=O)(O)O)[C@@H]1O [Example 24-2, tetrasodium 2-propylpentyl O-α-L-fucopyranosyl-(1→2)-β-D-galactopyranoside 3,3'-diphosphate] | 50% | 49% | –
8 | CCCC(CCC)CO[C@@H]1O[C@H](COS(=O)(=O)O)[C@H](O)[C@H](OS(=O)(=O)O)[C@H]1O[C@@H]1O[C@@H](C)[C@@H](O)[C@@H](O)[C@@H]1O [Example 25, Disodium 2-propylpentyl O-α-L-fucopyranosyl-(1→2)-β-D-galactonyranoside 3,6-disulfate] | 56% | 50% | –
9 | CCCC(CCC)CO[C@@H]1O[C@H](COS(=O)(=O)O)[C@H](O)[C@H](OS(=O)(=O)O)[C@H]1O[C@@H]1O[C@@H](C)[C@@H](O)[C@@H](OS(=O)(=O)O)[C@@H]1O [Example 26, Trisodium 2-propylpentyl O-α-L-fucopyranosyl-(1→2)-β-D-galactopyranoside 3,3',6-trisulfate] | 56% | 50% | –
10 | CCCCCCCCCCCCCCC(CCCCCCCCCCCCCC)CO[C@@H]1O[C@H](CO)[C@H](O)[C@H](OS(=O)(=O)O)[C@H]1O[C@@H]1O[C@@H](C)[C@@H](O)[C@@H](O)[C@@H]1O [Example 27-1, Sodium 2-tetradecylhexadecyl O-α-L-fucopyranosyl-(1→2)-β-D-galactopyranoside 3-sulfate] | 65% | 61% | –
11 | CCCCCCCCCCCCCCC(CCCCCCCCCCCCCC)CO[C@@H]1O[C@H](CO)[C@H](O)[C@H](OP(=O)(O)O)[C@H]1O[C@@H]1O[C@@H](C)[C@@H](O)[C@@H](O)[C@@H]1O [Example 27-2, disodium 2-tetradecylhexadecyl O-α-L-fucopyranosyl-(1→2)-β-D-galactopyranoside 3-phosphate] | 62% | 58% | –
12 | CCCCCCCCCCCCCCC(CCCCCCCCCCCCCC)CO[C@@H]1O[C@H](CO)[C@H](O)[C@H](OS(=O)(=O)O)[C@H]1O[C@@H]1O[C@@H](C)[C@@H](O)[C@@H](OS(=O)(=O)O)[C@@H]1O [Example 28-1, disodium 2-tetradecylhexadecyl O-α-L-fucopyranosyl-(1→2)-β-D-galactopyranoside 3,3'-disulfate] | 63% | 60% | –
13 | CCCCCCCCCCCCCCC(CCCCCCCCCCCCCC)CO[C@@H]1O[C@H](CO)[C@H](O)[C@H](OP(=O)(O)O)[C@H]1O[C@@H]1O[C@@H](C)[C@@H](O)[C@@H](OP(=O)(O)O)[C@@H]1O [Example 28-2, tetrasodium 2-tetradecylhexadecyl O-α-L-fucopyranosyl-(1→2)-β-D-galactopyranoside 3,3'-diphosphate] | 63% | 55% | –
14 | CCCCCCCCCCCCCCC(CCCCCCCCCCCCCC)CO[C@@H]1O[C@H](COS(=O)(=O)O)[C@H](O)[C@H](OS(=O)(=O)O)[C@H]1O[C@@H]1O[C@@H](C)[C@@H](O)[C@@H](O)[C@@H]1O [Example 29, Disodium 2-tetradecylhexadesyl O-α-L-fuconyranosyl-(1→2)-β-D-galactopyranoside 3,6-disulfate] | 67% | 65% | –
15 | CCCCCCCCCCCCCCC(CCCCCCCCCCCCCC)CO[C@@H]1O[C@H](COS(=O)(=O)O)[C@H](O)[C@H](OS(=O)(=O)O)[C@H]1O[C@@H]1O[C@@H](C)[C@@H](O)[C@@H](OS(=O)(=O)O)[C@@H]1O [Example 30, Trisodium 2-tetradecylhexadecyl O-α-L-fucopyranosyl-(1→2)-β-D-galactopyranoside 3,3',6-trisulfate] | 70% | 62% | –
16 | Sulfatide [reference compound] | – | – | inflammation inhibition effect [2]: shows inflammation inhibition effect; inflammation inhibition effect [3]: shows inflammation inhibition effect; Inhibition rate (%), index of bleeding ([4]; 0.2 mg/rat i.v., 5 min before CVF (20U/2 ml/kg, tail vein), hemoglobin absorbance at 541 nm, Table 1): 53%; Inhibition rate (%), myeloperoxidase activity as index of infiltration in neutrocyte ([5]; 0.2 mg/rat i.v., 5 min before CVF (20U/2 ml/kg, tail vein), lung precipitation, Table 2): 50%
